Data: patent US8778966B2, “Quinolinone derivatives as PARP and tank inhibitors” (Janssen Pharmaceutica, NV, priority 2007, dated 2014)

Tests used:
[1] = target: T1, TANK-2 enzyme (Homo sapiens, UniProt Q9H2K2); test: In vitro Scintillation Proximity Assay (SPA) for TANK-2 inhibitory activity; type: biochemical; conditions: read-out: in vitro SPA assay TANK-2 pIC50 (converted)
T1 construct: made in house
T1 sequence (Q9H2K2 1-1166): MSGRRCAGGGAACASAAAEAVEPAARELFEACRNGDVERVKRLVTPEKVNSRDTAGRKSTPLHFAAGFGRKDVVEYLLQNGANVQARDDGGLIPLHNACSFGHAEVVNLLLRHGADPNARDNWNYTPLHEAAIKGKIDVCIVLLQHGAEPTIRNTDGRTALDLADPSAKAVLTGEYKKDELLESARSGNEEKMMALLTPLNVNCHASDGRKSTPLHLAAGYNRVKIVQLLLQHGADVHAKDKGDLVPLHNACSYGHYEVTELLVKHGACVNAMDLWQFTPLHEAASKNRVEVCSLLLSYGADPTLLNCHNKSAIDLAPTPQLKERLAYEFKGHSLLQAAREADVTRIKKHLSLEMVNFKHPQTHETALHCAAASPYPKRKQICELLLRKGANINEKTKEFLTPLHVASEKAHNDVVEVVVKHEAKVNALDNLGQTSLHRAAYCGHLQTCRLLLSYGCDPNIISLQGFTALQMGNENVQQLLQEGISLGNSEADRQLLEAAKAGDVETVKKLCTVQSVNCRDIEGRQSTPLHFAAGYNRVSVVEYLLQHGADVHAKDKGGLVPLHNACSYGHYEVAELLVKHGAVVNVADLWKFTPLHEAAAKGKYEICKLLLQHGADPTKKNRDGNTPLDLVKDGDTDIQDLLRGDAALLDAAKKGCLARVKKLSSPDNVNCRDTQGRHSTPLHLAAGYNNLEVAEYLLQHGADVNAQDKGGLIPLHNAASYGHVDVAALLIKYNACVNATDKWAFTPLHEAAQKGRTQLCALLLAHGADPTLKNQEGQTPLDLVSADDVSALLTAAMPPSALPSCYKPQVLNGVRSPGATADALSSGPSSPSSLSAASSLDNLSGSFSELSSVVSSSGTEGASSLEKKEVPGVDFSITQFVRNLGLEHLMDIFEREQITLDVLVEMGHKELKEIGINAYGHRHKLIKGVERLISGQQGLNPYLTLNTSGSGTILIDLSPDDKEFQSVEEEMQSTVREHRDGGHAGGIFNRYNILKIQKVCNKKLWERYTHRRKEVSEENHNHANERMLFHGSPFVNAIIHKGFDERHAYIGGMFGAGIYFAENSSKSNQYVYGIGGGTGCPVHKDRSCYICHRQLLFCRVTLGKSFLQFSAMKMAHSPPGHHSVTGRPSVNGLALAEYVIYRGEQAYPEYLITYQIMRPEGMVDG
How it was run: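 TANK-2 (8 μg/ml final) auto-poly(ADP-ribosyl)ation with [3H]-NAD+/NAD donor was run in Ni flash plates in Tris/HCl pH 7.4 buffer with DTT and MgCl2, 120 min at room temperature, then stopped with excess NAD and scintillation-counted. Blank-corrected cpm was expressed as % of enzyme control, and IC50 was linearly interpolated and reported as pIC50.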

[2] = test system: tubulin; test: Tubulin polymerization assay; type: biochemical; set-up: key: a compound showing 0 to 50% inhibition at 20 μM is reported as score 1; Score 2 compounds are defined as compound showing more than 50% inhibition at 20 μM and less than 50% inhibition at 5 μM; a compound showing more than 50% inhibition at 5 μM is reported as score 3; conditions: tested at 20 μM and 5 μM
Procedure: The tubulin polymerization assay is an adaptation of an assay originally described by Bonne, D. et al. (J. Biol. Chem., 1985, 260:2819-25). The assay kit was purchased from Cytoskeleton, Inc. (catalogue number BK011) and the assay was performed as described by the supplier with the following modifications. The assay was run in a 384-well black Proxiplate (Perkin Elmer) and volumes were adapted accordingly. The reactions were carried out in a final volume of 10 μl. Compounds were added to 25 μl of the reaction mix in 96-well PP plates (Corning) on ice and 10 μl of this mixture was dispensed into duplicates of the 384-well Proxiplates pre-warmed to 37° C. in a Fluoroskan Ascent plate reader (Thermo Scientific). Fluorescence measurements were taken every minute for one hour. The maximum slope of each well was determined (linear regression through 4 consecutive points) and polymerization was calculated as a percentage of polymerization observed in the absence of compound. Compounds were first measured at a concentration of 20 μM and then at 5 μM for those showing more than 50% inhibition at 20 μM as compared to the polymerization observed in the absence of compound. Results are reported in Table F-2 as scores defined as: a compound showing 0 to 50% inhibition at 20 μM is reported as score 1; a compound showing more than 50% inhibition at 5 μM is reported as score 3.

| IC50 [1] | melting point | SMILES | tubulin polymerisation score [2] |
| --- | --- | --- | --- |
| 200 nM | 116 °C | CCc1cc2ccc([C@@](C)(C#N)CN(C)Cc3ccc(C#N)cc3)cc2[nH]c1=O (single isomer, unassigned) [Compound 253] | 2 |
| 50.1 nM | 170 °C | CCc1cc2ccc(C(C)(C#N)Cc3cccc(-c4cnn(C)c4)c3)cc2[nH]c1=O (centres unmarked) [Compound 17] |  |
| 251 nM | 192 °C | CCc1cc2ccc(C(C)(C#N)Cc3cccc(-c4ccccc4)c3)cc2[nH]c1=O (centres unmarked) [Compound 18] |  |
| 158 nM | 158 °C | CCc1cc2ccc(C(C)(C#N)Cc3cccc(I)c3)cc2[nH]c1=O (centres unmarked) [Compound 19] | 2 |
| 63.1 nM | 193 °C | CCc1cc2ccc(C(C)(C#N)Cc3cccc(N(C)C)c3)cc2[nH]c1=O (centres unmarked) [Compound 20] |  |
| 63.1 nM | 162 °C | CCc1cc2ccc(C(C)(C#N)Cc3cccc(N4CCOCC4)c3)cc2[nH]c1=O (centres unmarked) [Compound 21] |  |
| 50.1 nM | 217 °C | CCc1cc2ccc(C(C)(C#N)Cc3cccc(O)c3)cc2[nH]c1=O (centres unmarked) [Compound 22] |  |
| 200 nM | 150 °C | CCc1cc2ccc(C(C)(C#N)Cc3cccc(OCc4ccccc4)c3)cc2[nH]c1=O (centres unmarked) [Compound 23] |  |
| 79.4 nM | 134 °C | CCc1cc2ccc(C(C)(C#N)Cc3cccc(OCCOC)c3)cc2[nH]c1=O (centres unmarked) [Compound 24] |  |
| 200 nM | 212 °C | CCc1cc2ccc(C(C)(C#N)Cc3cc(C)cc(C#N)c3)cc2[nH]c1=O (centres unmarked) [Compound 174] |  |
| 398 nM | 124 °C | CCc1cc2ccc(C(C)(C#N)Cc3cccc(S(F)(F)(F)(F)F)c3)cc2[nH]c1=O (centres unmarked) [Compound 177] |  |
| 158 nM | > 250 °C | CCc1cc2ccc(C(C)(C#N)Cc3cccc(C4(N)CC4)c3)cc2[nH]c1=O (centres unmarked) [Compound 180] |  |
| 20 nM | 256 °C | CCc1cc2ccc(C(C)(C#N)CCCN(C)C(=O)c3ccc(F)cc3)cc2[nH]c1=O (centres unmarked) [Compound 188] |  |
| 251 nM | 106 °C | CCc1cc2ccc([C@](C)(C#N)CN(C)Cc3ccc(C#N)cc3)cc2[nH]c1=O [Compound 190] |  |
| 39.8 nM | > 250 °C | CCc1cc2cc(C)c(C(C)(C#N)Cc3cccc(C#N)n3)cc2[nH]c1=O (centres unmarked) [Compound 208] |  |
| 126 nM | 222 °C | CCc1cc2ccc(C(C)(C#N)Cc3ccc(Cl)nc3Cl)cc2[nH]c1=O (centres unmarked) [Compound 212] |  |

| IC50 [1] | melting point | SMILES | tubulin polymerisation score [2] |
| --- | --- | --- | --- |
| 1000 nM | 95 °C | COc1cc2ccc(C(C)(C#N)Cc3cccc(C#N)n3)cc2[nH]c1=O (centres unmarked) [Compound 218] | 2 |
| 200 nM | 167 °C | CCc1cc2ccc(C(C)(C#N)Cc3ccc(OC)nc3Cl)cc2[nH]c1=O (centres unmarked) [Compound 224] |  |
| 126 nM | 160 °C | CCc1cc2ccc(C(C)(C#N)Cc3ccc(Cl)nc3OC)cc2[nH]c1=O (centres unmarked) [Compound 225] | 2 |
| 200 nM | 155 °C | CCc1cc2ccc(C(C)(C#N)Cc3cccc(N4CCCC4)n3)cc2[nH]c1=O (centres unmarked) [Compound 226] | 2 |
| 63.1 nM | 65 °C | CCc1cc2ccc(C(C)(C#N)Cc3cc(OC)cc(OC)n3)cc2[nH]c1=O (centres unmarked) [Compound 232] | 2 |
| 31.6 nM | 250 °C | CCc1cc2ccc(C(C)(C#N)Cc3cc(C#N)cc4c3OCC4)cc2[nH]c1=O (centres unmarked) [Compound 236] | 2 |
| 251 nM | 250 °C | CCc1cc2ccc(C(C)(C#N)Cc3cc4ccccc4nn3)cc2[nH]c1=O (centres unmarked) [Compound 238] |  |
| 794 nM |  | CCc1cc2ccc(C(C)(C#N)Cc3ccc(C(F)(F)F)nc3C)cc2[nH]c1=O (centres unmarked) [Compound 340] | 1 (a compound showing 0 to 50% inhibition at 20 μM is reported as score 1) |
| 39.8 nM |  | CCc1cc2ccc(C(C#N)(CC)Cc3cccc(C#N)n3)cc2[nH]c1=O (centres unmarked) [Compound 342] | 3 (a compound showing more than 50% inhibition at 5 μM is reported as score 3) |
| 200 nM |  | CCc1cc2ccc(C(C)(C#N)CCOc3ncc(Br)cn3)cc2[nH]c1=O (centres unmarked) [Compound 349] | 2 |
| 126 nM |  | CCc1cc2ccc(C(C)(C#N)Cc3nc(C)cc(OC)n3)cc2[nH]c1=O (centres unmarked) [Compound 371] | 1 (a compound showing 0 to 50% inhibition at 20 μM is reported as score 1) |
| 501 nM |  | CCc1cc2ccc(C(C)(C#N)CN3CCN(c4ncc(Br)cn4)CC3)cc2[nH]c1=O (centres unmarked) [Compound 374] | 2 |
| 200 nM |  | CCc1cc2ccc(C(C)(C#N)CN3CCc4ccccc4C3)cc2[nH]c1=O (centres unmarked) [Compound 376] | 1 (a compound showing 0 to 50% inhibition at 20 μM is reported as score 1) |
| 100 nM |  | CCc1cc2ccc([C@](C)(C#N)C[C@H]3Cc4ccccc4O3)cc2[nH]c1=O [Compound 397] | 1 (a compound showing 0 to 50% inhibition at 20 μM is reported as score 1) |
| 501 nM |  | CCc1cc2ccc(C(C)(C#N)CC3Oc4ccccc4O3)cc2[nH]c1=O (centres unmarked) [Compound 398] | 2 |
| 126 nM |  | CCc1cc2ccc(C(C)(C#N)Cc3cc(F)cc(F)c3)cc2[nH]c1=O (centres unmarked) [Compound 402] | 1 (a compound showing 0 to 50% inhibition at 20 μM is reported as score 1) |
